Measurements reported in patent US20100248377A1, “DETECTION OF CONTRAST MEDIUM-INDUCED NEPHROTOXICITY” (priority 2007, published 2010).

What was measured:
Assay type in all cases: in vivo, human
[1] = system: total adiponectin (urine); assay: Example 2 study, 20 PCTA subjects, urine total adiponectin after contrast medium; conditions: n = 20, t = 0 h value 0.66
Procedure: (§1) In a different study, the effect of the administration of the contrast medium lobitridol (Xenetix, Xen 350) on the urine level of creatinine, urotensin II, total adiponectin and L-FABP in samples obtained from 20 subjects which underwent percutaneous transluminal coronary angioplasty (PCTA) was analyzed. Samples were obtained prior to the administration of the contrast medium (t=0 h), four hours after administration of the contrast medium (t=4 h), as well as 24 hours after administration of the contrast medium.

L-FABP (urine) [2] = assay: Example 2 study, 20 PCTA subjects, urine L-FABP after contrast medium; conditions: for L-FABP, median: urine, n = 20, t = 0 h value 13.44
Procedure: as §1

L-FABP (urine) [3] = assay: Dose response analysis, L-FABP in urine of PCTA patients after contrast medium; conditions: for L-FABP Changes: 24 h vs 0 h; for 24 h L-FABP: urine
Procedure: (§2) The effect of the administration of various amounts of the contrast medium Iobitridol (Xenetix, Xen 350) on the level of creatinine, urotensin II, total adiponectin and L-FABP in urine samples obtained from subjects which underwent percutaneous transluminal coronary angioplasty (PCTA) was analysed. All six patients examined in this study had no apparent renal disorder indicated by a serum creatinine level of less than 1.2 mg/dl (before PCTA). Each patient received a different amount of the contrast medium (50 ml, 80 ml, 100 ml, 150 ml, 220 ml and 350 ml, respectively). The urinary levels of creatinine, urotensin II, total adiponectin and L-FABP were determined in samples that were obtained prior to the administration of different volumes of the contrast medium (time point 0) and 24 h after the administration of the contrast medium. […] The results are normalized to the urinary creatinine concentration. From the data it clearly can be seen that a high dose of an administered contrast medium leads to a significant increase of adiponectin and L-FABP.

L-FABP (urine) [4] = assay: Example 3 case, coronary angiography, urine L-FABP; conditions: person, 350 ml, 24 hours after administration; before 7
Procedure: (§3) In order to examine whether the chest pain is caused by a coronary artery disease, a coronary angiography is initiated. A serum sample is obtained from the patient prior to the angiography and the amount of creatinine is determined in a serum sample (0.9 mg/dl). Moreover, in a urine sample HMW adiponectin, urotensin II and L-FABP are determined (adiponectin 0.92 μg/g Creatinine; L-FABP 7 μg/g Creatinine; Urotensin II: 1.2 μg/g Creatinine).
(§4) For coronary angiography 350 ml Xen350 are administered to the patient as a contrast medium. After successful coronary angiography, the patient is monitored for 24 hours. Moreover, creatinine (serum level: 1 mg/dl), adiponectin, L-FABP and urotensin II are determined again after 24 hours after the administration of the contrast medium (urine level: adiponectin 1.55 μg/g Creatinine; L-FABP 21 μg/g Creatinine; Urotensin II: 6 μg/g Creatinine).

urotensin II (urine) [5] = assay: Example 2 study, 20 PCTA subjects, urine urotensin II after contrast medium; conditions: for Urotensin II, median: urine, n = 20, t = 0 h value 1.18
Procedure: as §1

creatinine (urine) [6] = assay: Dose response analysis, creatinine in urine of PCTA patients after contrast medium; conditions: 24 h after vs before administration; six patients, 50-350 ml
Procedure: as §2

[7] = system: total adiponectin (urine); assay: Dose response analysis, total adiponectin in urine of PCTA patients after contrast medium; conditions: for Adiponectin Changes: 24 h vs 0 h; for 24 h Adiponectin: urine
Procedure: as §2

serum creatinine = assay: Example 3 case, coronary angiography, serum creatinine and renal outcome; conditions: person, 350 ml
Procedure: as §3, §4

urotensin II (urine) [8] = assay: Dose response analysis, urotensin II in urine of PCTA patients after contrast medium; conditions: 24 h after vs before administration; six patients, 50-350 ml
Procedure: as §2

creatinine (urine) [9] = assay: Example 2 study, 20 PCTA subjects, urine creatinine after contrast medium; conditions: n = 20, t = 0 h value 0.75
Procedure: as §1

HMW adiponectin (urine) = assay: Example 3 case, coronary angiography, urine HMW adiponectin; conditions: person, 350 ml, 24 hours after administration; before 0.92
Procedure: as §3, §4

urotensin II (urine) [10] = assay: Example 3 case, coronary angiography, urine urotensin II; conditions: person, 350 ml, 24 hours after administration; before 1.2
Procedure: as §3, §4

[11] = 24 h after vs before administration, six patients, 50-350 ml

CN(CC(O)CO)C(=O)c1c(I)c(NC(=O)C(CO)CO)c(I)c(C(=O)N(C)CC(O)CO)c1I (centres unmarked) [Xen350, Iobitridol]
Adiponectin, median ([1]; t = 4 h): 0.89 μg/g Creatinine | Adiponectin, median ([1]; t = 24 h): 1.09 μg/g Creatinine | L-FABP (L-FABP (urine) [2]; Table 3 Patient 1, t = 4 h, t = 0 h value 12): 6 μg/g Creatinine | L-FABP (L-FABP (urine) [2]; Table 3 Patient 1, t = 24 h, t = 0 h value 12): 26 μg/g Creatinine | L-FABP (L-FABP (urine) [2]; Table 3 Patient 2, t = 4 h, t = 0 h value 5): 6 μg/g Creatinine | L-FABP (L-FABP (urine) [2]; Table 3 Patient 2, t = 24 h, t = 0 h value 5): 33 μg/g Creatinine | L-FABP, median (L-FABP (urine) [2]; t = 4 h): 12.16 μg/g Creatinine | L-FABP, median (L-FABP (urine) [2]; t = 24 h): 26.03 μg/g Creatinine | increase of median L-FABP in urine (L-FABP (urine) [3]; [11]): 415% | L-FABP Changes (L-FABP (urine) [3]; Patient 1, 50 ml): −45% | 24 h L-FABP (L-FABP (urine) [3]; Patient 1, 50 ml, 0 h value 20.19): 11.17 ug/g Crea | L-FABP Changes (L-FABP (urine) [3]; Patient 2, 80 ml): 49% | 24 h L-FABP (L-FABP (urine) [3]; Patient 2, 80 ml, 0 h value 42.71): 63.48 ug/g Crea | L-FABP Changes (L-FABP (urine) [3]; Patient 3, 100 ml): 40% | 24 h L-FABP (L-FABP (urine) [3]; Patient 3, 100 ml, 0 h value 13.77): 19.33 ug/g Crea | L-FABP Changes (L-FABP (urine) [3]; Patient 4, 150 ml): 481% | 24 h L-FABP (L-FABP (urine) [3]; Patient 4, 150 ml, 0 h value 6.8): 32.74 ug/g Crea | L-FABP Changes (L-FABP (urine) [3]; Patient 5, 220 ml): 544% | 24 h L-FABP (L-FABP (urine) [3]; Patient 5, 220 ml, 0 h value 13.1): 71.23 ug/g Crea | L-FABP Changes (L-FABP (urine) [3]; Patient 6, 350 ml): 406% | 24 h L-FABP (L-FABP (urine) [3]; Patient 6, 350 ml, 0 h value 4.36): 17.71 ug/g Crea | L-FABP urine level (L-FABP (urine) [4]): 21 μg/g Creatinine | Urotensin II (urotensin II (urine) [5]; Table 3 Patient 1, t = 4 h, t = 0 h value 832): 999 pg/mL | Urotensin II (urotensin II (urine) [5]; Table 3 Patient 1, t = 24 h, t = 0 h value 832): 2591 pg/mL | Urotensin II (urotensin II (urine) [5]; Table 3 Patient 2, t = 4 h, t = 0 h value 1043): 1131 pg/mL | Urotensin II (urotensin II (urine) [5]; Table 3 Patient 2, t = 24 h, t = 0 h value 1043): 39441 pg/mL | Urotensin II, median (urotensin II (urine) [5]; t = 4 h): 1.23 μg/g Creatinine | Urotensin II, median (urotensin II (urine) [5]; t = 24 h): 1.77 μg/g Creatinine | increase of median creatinine in urine (creatinine (urine) [6]): 41% | increase of median adiponectin in urine [7, 11]: 400% | Adiponectin Changes ([7]; Patient 1, 50 ml): −88% | 24 h Adiponectin ([7]; Patient 1, 50 ml, 0 h value 0.92): 0.11 ug/g Crea | Adiponectin Changes ([7]; Patient 2, 80 ml): −22% | 24 h Adiponectin ([7]; Patient 2, 80 ml, 0 h value 2.99): 2.34 ug/g Crea | Adiponectin Changes ([7]; Patient 3, 100 ml): −44% | 24 h Adiponectin ([7]; Patient 3, 100 ml, 0 h value 2.68): 1.49 ug/g Crea | Adiponectin Changes ([7]; Patient 4, 150 ml): −91% | 24 h Adiponectin ([7]; Patient 4, 150 ml, 0 h value 0.32): 0.03 ug/g Crea | Adiponectin Changes ([7]; Patient 5, 220 ml): 897% | 24 h Adiponectin ([7]; Patient 5, 220 ml, 0 h value 0.41): 3.68 ug/g Crea | Adiponectin Changes ([7]; Patient 6, 350 ml): 690% | 24 h Adiponectin ([7]; Patient 6, 350 ml, 0 h value 0.1): 0.69 ug/g Crea | creatinine serum level (serum creatinine; 24 hours after administration, before 0.9): 1 mg/dL | serum creatinine level (serum creatinine; after two more days (after the 24 h monitoring)): 2.5 mg/dL | renal outcome diagnosed (serum creatinine; after two more days, significantly reduced urine excretion): acute renal failure | increase of median urotensin II in urine (urotensin II (urine) [8]): 350% | Creatinine, median (creatinine (urine) [9]; t = 4 h): 0.45 g/L | Creatinine, median (creatinine (urine) [9]; t = 24 h): 1.05 g/L | adiponectin urine level (HMW adiponectin (urine)): 1.55 μg/g Creatinine | Urotensin II urine level (urotensin II (urine) [10]): 6 μg/g Creatinine
